# Active and inactive are the calls of the source. No cut-off for these calls is given here.
# Experiments:
# [1] = Toxicity in BALB/c mouse xenografted with mouse CT26.WT assessed as pathological changes in spleen at 100 mg/kg, ip twice daily and measured after 14 days by hematoxylin and eosin staining based microscopic analysis; format: organism-based; conditions: in vivo, 336 h, time 14 day
# HGC-27 [2] = experiment: Induction of apoptosis in human HGC-27 cells assessed as increase in Bax/Bcl-2 ratio expression at 1.1 to 10 uM incubated for 24 hrs by western blot assay; format: functional, cell-based; conditions: dose 1.1-10 µM
# [3] = Acute toxicity in Kunming mouse assessed as behavioral changes at 100 mg/kg,ip and measured upto 14 days; format: organism-based; conditions: in vivo, 336 h, time < 14 day
# CT26.WT [4] = experiment: Antiproliferative activity against mouse CT26.WT cells assessed as reduction in cell proliferation incubated for 48 hrs by MTT assay; format: functional, cell-based
# [5] = Toxicity in BALB/c mouse xenografted with mouse CT26.WT assessed as pathological changes in liver at 100 mg/kg, ip twice daily and measured after 14 days by hematoxylin and eosin staining based microscopic analysis; format: organism-based; conditions: in vivo, 336 h, time 14 day
# HGC-27 [6] = experiment: Induction of apoptosis in human HGC-27 cells assessed as increase in cleaved caspase-3 expression at 1.1 to 10 uM incubated for 24 hrs by western blot assay; format: functional, cell-based; conditions: dose 1.1-10 µM
# [7] = Toxicity in BALB/c mouse xenografted with mouse CT26.WT assessed as pathological changes in lung at 100 mg/kg, ip twice daily and measured after 14 days by hematoxylin and eosin staining based microscopic analysis; format: organism-based; conditions: in vivo, 336 h, time 14 day
# RKO [8] = experiment: Induction of apoptosis in human RKO cells assessed as increase in caspase-3 activity at 10 uM incubated for 36 hrs by flow cytometry (Rvb= 1.08%); format: functional
# RAW264.7 [9] = experiment: Inhibition of LPS induced NO production in mouse RAW264.7 cells at 1.1 uM incubated for 1 hrs followed by LPS stimulation and measured after 24 hrs by Griess reagent based assay; format: functional, cell-based; conditions: time 25.0 hrs
# RAW264.7 [10] = experiment: Cytotoxicity against mouse RAW264.7 cells assessed as reduction in cell viability at <=11.11 for 24 hrs by MTT assay; format: toxicity, cell-based; conditions: raw264.7, 24 h
# CT26.WT [11] = experiment: Anti-tumor activity against mouse CT26.WT xenografted in BALB/c mouse assessed as decrease in MMP-9 expression level in tumor tissue at 100 mg/kg, ip twice daily and measured after 14 days by immunohistochemical analysis; format: functional, organism-based; conditions: time 14.0 day
# [12] = Metabolic stability in rat whole blood assessed as parent compound remaining at 23.76 to 536 ug/mL and measured upto 4 hrs by HPLC analysis; format: ADME, tissue-based; conditions: at 23.76 to 536 µg/mL, dose 23.76-536 µg/ml, read-out: Stability
# RKO [13] = experiment: Induction of cell cycle arrest in human RKO cells assessed as accumulation at G2/M phase at 3.3 to 10 uM for 24 hrs by propidium iodide staining based flow cytometry; format: functional; conditions: dose 3.3-10 µM
# RAW264.7 [14] = experiment: Antiinflammatory activity against LPS-stimulated mouse RAW264.7 cells assessed decrease in IL-1beta release at 1.1 uM incubated for 1 hrs followed by LPS stimulation and measured after 24 hrs by ELISA; format: functional, cell-based; conditions: time 25.0 hrs
# RKO [15] = experiment: Induction of apoptosis in human RKO cells assessed as increase in cytochrome C level at 1.1 to 10 uM incubated for 24 hrs by western blot assay; format: functional, cell-based; conditions: dose 1.1-10 µM
# [16] = molecular target: T1, Nuclear factor NF-kappa-B complex (Homo sapiens) (UniProt Q00653+P19838+Q04206); experiment: Inhibition of NF-kappaB activation in human RKO cells assessed as downregulation of NF-kappaB phosphorylation at 10 uM for 48 hrs by DAPI staining based immunofluorescence assay; format: cell-based
# RAW264.7 [17] = experiment: Inhibition of LPS induced NO production in mouse RAW264.7 cells at 6.6 uM incubated for 1 hrs followed by LPS stimulation and measured after 24 hrs by Griess reagent based assay; format: functional, cell-based; conditions: time 25.0 hrs
# [18] = Cmax in Sprague-Dawley rat at 100 mg/kg, ip and measured upto 8 hrs by LC-MS/MS analysis; format: ADME, organism-based; design: time < 8 hrs, dose 100 mg/kg, route ip; conditions: in vivo
# HGC-27 [19] = experiment: Anti-migration activity against human HGC-27 cells assessed as decrease in cell migration rate at 0.37 uM for 48 hrs by crystalline violet staining based assay; format: functional
# [20] = Tmax in Sprague-Dawley rat at 100 mg/kg, ip and measured upto 8 hrs by LC-MS/MS analysis; format: ADME, organism-based; conditions: in vivo
# RAW264.7 [21] = experiment: Antiinflammatory activity against LPS-stimulated mouse RAW264.7 cells assessed decrease in IL-1beta release at 6.6 uM incubated for 1 hrs followed by LPS stimulation and measured after 24 hrs by ELISA relative to control; format: functional, cell-based; conditions: time 25.0 hrs
# [22] = molecular target: T1, Nuclear factor NF-kappa-B complex (Homo sapiens); experiment: Inhibition of NF-kappaB activation in human HGC-27 cells assessed as downregulation of NF-kappaB phosphorylation at 10 uM for 48 hrs by DAPI staining based immunofluorescence assay; format: cell-based
# [23] = Toxicity in BALB/c mouse xenografted with mouse CT26.WT assessed as pathological changes in heart at 100 mg/kg, ip twice daily and measured after 14 days by hematoxylin and eosin staining based microscopic analysis; format: organism-based; conditions: in vivo, 336 h, time 14 day
# HGC-27 [24] = experiment: Induction of apoptosis in human HGC-27 cells at 1.1 to 10 uM for 24 hrs by Annexin V-FITC/PI staining based flow cytometry; format: functional, cell-based; conditions: dose 1.1-10 µM
# HGC-27 [25] = experiment: Induction of apoptosis in human HGC-27 cells assessed as increase in caspase-3 activity at 10 uM incubated for 36 hrs by flow cytometry (Rvb= 9.39%); format: functional
# CT26.WT [26] = experiment: Anti-tumor activity against mouse CT26.WT xenografted in BALB/c mouse assessed as increase in apoptosis at 100 mg/kg, ip twice daily and measured after 14 days by TUNEL staining based assay; format: functional, organism-based; conditions: time 14.0 day
# RKO [27] = experiment: Induction of apoptosis in human RKO cells assessed as increase in caspase-3 activity at 1.1 to 10 uM incubated for 36 hrs by flow cytometry; format: functional, cell-based; conditions: dose 1.1-10 µM, DDE = dose-dependent effect
# T1 sequence (P19838 whole entry, looked up): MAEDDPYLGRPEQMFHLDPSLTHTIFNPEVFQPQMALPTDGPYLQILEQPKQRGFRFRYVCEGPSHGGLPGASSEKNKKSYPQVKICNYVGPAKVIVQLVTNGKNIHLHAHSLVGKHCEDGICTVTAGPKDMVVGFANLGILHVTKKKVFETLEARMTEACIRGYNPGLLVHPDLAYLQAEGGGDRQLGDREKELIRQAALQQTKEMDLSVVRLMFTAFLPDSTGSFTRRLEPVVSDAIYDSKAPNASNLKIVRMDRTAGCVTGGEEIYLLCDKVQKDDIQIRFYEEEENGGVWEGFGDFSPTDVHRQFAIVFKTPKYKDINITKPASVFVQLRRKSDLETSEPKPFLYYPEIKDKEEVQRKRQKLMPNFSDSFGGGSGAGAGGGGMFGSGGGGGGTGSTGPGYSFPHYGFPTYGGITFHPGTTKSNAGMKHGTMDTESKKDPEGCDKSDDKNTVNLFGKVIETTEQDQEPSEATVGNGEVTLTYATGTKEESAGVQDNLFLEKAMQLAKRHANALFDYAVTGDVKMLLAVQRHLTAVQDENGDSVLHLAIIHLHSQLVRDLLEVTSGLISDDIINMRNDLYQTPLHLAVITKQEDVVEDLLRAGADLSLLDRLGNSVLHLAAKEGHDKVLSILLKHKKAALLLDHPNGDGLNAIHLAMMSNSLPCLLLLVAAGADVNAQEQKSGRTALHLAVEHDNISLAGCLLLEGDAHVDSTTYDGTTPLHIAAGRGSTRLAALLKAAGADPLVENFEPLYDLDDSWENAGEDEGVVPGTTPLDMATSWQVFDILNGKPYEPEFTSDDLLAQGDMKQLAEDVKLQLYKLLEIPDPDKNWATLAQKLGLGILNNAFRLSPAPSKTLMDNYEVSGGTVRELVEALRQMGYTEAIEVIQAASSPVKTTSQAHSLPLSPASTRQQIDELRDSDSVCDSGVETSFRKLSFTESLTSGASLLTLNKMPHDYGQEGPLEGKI
# T1 sequence (Q00653 whole entry, looked up): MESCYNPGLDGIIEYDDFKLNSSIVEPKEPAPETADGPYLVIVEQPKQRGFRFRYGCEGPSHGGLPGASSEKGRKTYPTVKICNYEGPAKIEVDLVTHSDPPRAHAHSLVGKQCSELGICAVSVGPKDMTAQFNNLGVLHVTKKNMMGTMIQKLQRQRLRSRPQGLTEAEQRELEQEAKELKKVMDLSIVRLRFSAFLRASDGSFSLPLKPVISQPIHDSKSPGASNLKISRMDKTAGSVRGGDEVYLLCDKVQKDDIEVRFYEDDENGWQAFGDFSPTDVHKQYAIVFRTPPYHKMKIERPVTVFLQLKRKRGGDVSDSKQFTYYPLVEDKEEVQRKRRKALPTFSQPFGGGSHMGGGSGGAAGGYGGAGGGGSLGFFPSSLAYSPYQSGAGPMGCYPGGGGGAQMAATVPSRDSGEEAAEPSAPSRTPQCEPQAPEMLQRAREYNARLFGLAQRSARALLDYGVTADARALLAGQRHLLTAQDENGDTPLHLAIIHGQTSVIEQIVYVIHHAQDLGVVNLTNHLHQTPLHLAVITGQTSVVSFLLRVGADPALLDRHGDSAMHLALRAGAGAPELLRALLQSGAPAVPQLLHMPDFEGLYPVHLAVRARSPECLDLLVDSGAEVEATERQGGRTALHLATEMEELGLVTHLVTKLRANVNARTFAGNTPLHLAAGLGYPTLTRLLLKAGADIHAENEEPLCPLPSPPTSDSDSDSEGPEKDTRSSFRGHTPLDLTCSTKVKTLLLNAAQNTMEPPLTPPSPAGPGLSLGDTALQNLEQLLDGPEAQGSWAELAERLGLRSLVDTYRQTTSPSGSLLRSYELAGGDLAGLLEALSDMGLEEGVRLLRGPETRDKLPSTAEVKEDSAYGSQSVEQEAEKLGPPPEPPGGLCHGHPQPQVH
# T1 sequence (Q04206 whole entry, looked up): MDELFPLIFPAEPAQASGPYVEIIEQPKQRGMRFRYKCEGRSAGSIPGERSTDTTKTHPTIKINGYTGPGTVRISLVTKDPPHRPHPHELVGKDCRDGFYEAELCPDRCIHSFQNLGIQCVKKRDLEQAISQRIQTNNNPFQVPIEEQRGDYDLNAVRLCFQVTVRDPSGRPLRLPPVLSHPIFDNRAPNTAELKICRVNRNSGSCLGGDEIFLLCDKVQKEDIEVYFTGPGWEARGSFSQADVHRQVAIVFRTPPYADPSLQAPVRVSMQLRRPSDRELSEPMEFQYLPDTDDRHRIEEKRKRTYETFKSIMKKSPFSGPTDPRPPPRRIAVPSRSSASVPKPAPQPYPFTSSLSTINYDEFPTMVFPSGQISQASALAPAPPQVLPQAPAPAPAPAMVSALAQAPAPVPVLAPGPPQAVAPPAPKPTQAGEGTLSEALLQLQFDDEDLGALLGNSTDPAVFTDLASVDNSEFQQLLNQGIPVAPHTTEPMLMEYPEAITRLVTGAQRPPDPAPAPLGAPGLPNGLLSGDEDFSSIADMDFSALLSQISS
structure (smiles),measurement,setting,value
Cc1c(Cl)cccc1Nc1ccc(F)cc1C(=O)NCc1ccc(O)c(O)c1,Activity,[1],Non-Toxic
same,Activity,HGC-27 [2],Active
same,Activity,[3],Non-Toxic
same,IC50,CT26.WT [4],3.04 µM
same,Activity,[5],Non-Toxic
same,Activity,HGC-27 [6],Active
same,Activity,[7],Non-Toxic
same,Activity,RKO [8],55.94%
same,inhibition,RAW264.7 [9],Active
same,Activity,RAW264.7 [10],> 80%
same,Activity,CT26.WT [11],Active
same,remaining at 4 h,[12],> 90%
same,Activity,RKO [13],Active
same,Activity,RAW264.7 [14],Active
same,Activity,RKO [15],Active
same,inhibition,[16],Active
same,inhibition,RAW264.7 [17],Active
same,Cmax,[18],20200 ng/mL
same,Activity,HGC-27 [19],Active
same,Tmax,[20],40.2 min
same,Activity,RAW264.7 [21],Active
same,inhibition,[22],Active
same,Activity,[23],Non-Toxic
same,Activity,HGC-27 [24],Active
same,Activity,HGC-27 [25],69.46%
same,Activity,CT26.WT [26],Active
same,Activity,RKO [27],Dde

# Source: ChEMBL document CHEMBL5137070, “N-2-(Phenylamino) Benzamide Derivatives as Dual Inhibitors of COX-2 and Topo I Deter Gastrointestinal Cancers via Targeting Inflammation and Tumor Progression” (J Med Chem, 2022)
